Reference: US4161523A, “Rosamicin esters, acid addition salts and methods for production thereof” (priority 1974, dated 1979)
≈ marks a conversion by molar mass, not a printed value. Counter-ions that a name gives are not always drawn. Like-named read-outs stand apart in the source and are kept apart here.

How the values were obtained:
[1] = system: Bacillus subtilis ATCC 6633; test: Cylinder cup assay (bioassay potency); assay type: cell-based; conditions: for potency (bioassay): reference standard assigned 1000 mcg/mg
Protocol: The assay technique employed is a cylinder cup assay using Bacillus subtilis ATCC 6633 as the test organism.
The physical conditions of the assay consist of a base layer of 21 ml. and a seed layer of 4 ml. of Antibiotic Medium No. 5. A standard curve is plotted using the following concentrations of antibiotic ([…]) in 0.1 M phosphate buffer (pH 8.0): 0.64, 0.8, 1.0, 1.25, and 1.56. […] The test procedure and the test medium is substantially that described for erythromycin in Assay Methods of Antibiotics, D. C. Grove and W. A. Randall, Medical Encyclopedia Inc., New York, New York (1955) pp. 96-103.

[2] = pKa; assay type: physicochemical
[3] = system: pepsin; test: Stability to pepsin; assay type: in vitro ADME; conditions: pepsin 1 mg./ml. pH 2.2, 37° C., 24 hours; disc assay E. coli and S. aureus
Protocol: (§1) Antiobiotic 67-694 has been tested for stability against trypsin, chymotrypsin, pepsin, and α-amylase. Solutions of the enzymes were prepared at 1 mg./ml. in McIlvaines buffers at the optimal pH for the enzyme (i.e. trypsin and chymotrypsin pH 8; pepsin, pH 2.2; and α-amylase pH 4). Two hundred (200) mcg. of antibiotic was dissolved in 0.5 ml. of water, mixed with 0.5 ml. of enzyme solution and incubated at 37° C. for 24 hours. The solutions were disc assayed against Escherichia coli and Staphylococcus aureus after 0, 1, 2.5 and 24 hours incubation.

[4] = system: Diplococcus Pneumoniae; test: In vitro activity, tube dilution (MIC), Diplococcus Pneumoniae; assay type: cell-based; conditions: 3 strains; yeast beef broth pH 7.4, 18 h, 37° C.; read-out: MIC (Minimal Inhibitory Concentration), range
Protocol: (§2) The in vitro activity of Antibiotic 67-694 is ascertained by conventional tube dilution procedures using yeast beef broth medium at pH 7.4. The tubes are incubated for 18 hours at 37° C. prior to being observed.

[5] = system: trypsin; test: Stability to trypsin; assay type: in vitro ADME; conditions: trypsin 1 mg./ml. pH 8, 37° C., 24 hours; disc assay E. coli and S. aureus
Protocol: as §1

[6] = system: Proteus sp.; test: In vitro activity, tube dilution (MIC), Proteus sp.; assay type: cell-based; conditions: 3 strains; yeast beef broth pH 7.4, 18 h, 37° C.; read-out: MIC (Minimal Inhibitory Concentration), range
Protocol: as §2

[7] = system: Enterococcus sp.; test: In vitro activity, tube dilution (MIC), Enterococcus sp.; assay type: cell-based; conditions: 2 strains; yeast beef broth pH 7.4, 18 h, 37° C.; read-out: MIC (Minimal Inhibitory Concentration), range
Protocol: as §2

[8] = system: Klebsiella pneumoniae; test: In vitro activity, tube dilution (MIC), Klebsiella pneumoniae; assay type: cell-based; conditions: 4 strains; yeast beef broth pH 7.4, 18 h, 37° C.; read-out: MIC (Minimal Inhibitory Concentration), range
Protocol: as §2

[9] = system: Staphylococcus aureus; test: In vitro activity, tube dilution (MIC), Staphylococcus aureus; assay type: cell-based; conditions: 6 strains; yeast beef broth pH 7.4, 18 h, 37° C.; read-out: MIC (Minimal Inhibitory Concentration), range
Protocol: as §2

[10] = system: Streptococcus pyogenes; test: In vitro activity, tube dilution (MIC), Streptococcus pyogenes; assay type: cell-based; conditions: 7 strains; yeast beef broth pH 7.4, 18 h, 37° C.; read-out: MIC (Minimal Inhibitory Concentration), range
Protocol: as §2

[11] = Solubility; assay type: physicochemical; conditions: U.S. Pharmacopea, 17th revision
Description: ^a) According to U.S. Pharmacopea, 17th revision (1965) pg. 8

[12] = system: chymotrypsin; test: Stability to chymotrypsin; assay type: in vitro ADME; conditions: chymotrypsin 1 mg./ml. pH 8, 37° C., 24 hours; disc assay E. coli and S. aureus
Protocol: as §1

[13] = Acute toxicity in mice; set-up: species or system male CF-1 (Carworth Farms) mice; conditions: mouse, in vivo
Protocol: (§3) The protective activity and the acute toxicity of Antibiotic 67-694 is tested in male CF-1 (Carworth Farms) mice weighing approximately 20 gms. each. For protection, the antibiotic is given as a suspension or a solution in an aqueous vehicle containing 0.5% carboxy methyl cellulose (CMC) in two doses; one shortly before and one 4 hours after intraperitoneal infection with the bacteria. Infected and non-treated mice (controls) generally die within 18 hours. Survival rate in the treated group is determined 48 hours after infection.
(§4) The acute toxicity of Antibiotic 67-694 is measured in the standard manner by administering the antibiotic by a variety of routes and determining the LD50 by standard procedures. The results of in vivo tests using a representative gram-positive and a representative gram negative organism are set forth in Tables X and Xi below: […]

[14] = system: Aerobacter aerogenes; test: In vitro activity, tube dilution (MIC), Aerobacter aerogenes; assay type: cell-based; conditions: 3 strains; yeast beef broth pH 7.4, 18 h, 37° C.; read-out: MIC (Minimal Inhibitory Concentration), range
Protocol: as §2

[15] = system: Pseudomonas aeruginosa; test: In vitro activity, tube dilution (MIC), Pseudomonas aeruginosa; assay type: cell-based; conditions: 4 strains; yeast beef broth pH 7.4, 18 h, 37° C.; read-out: MIC (Minimal Inhibitory Concentration), range
Protocol: as §2

[16] = system: Escherichia coli; test: In vitro activity, tube dilution (MIC), Escherichia coli; assay type: cell-based; conditions: 3 strains; yeast beef broth pH 7.4, 18 h, 37° C.; read-out: MIC (Minimal Inhibitory Concentration), range
Protocol: as §2

[17] = system: Staphylococcus aureus gray; test: Protective activity in mice, Staphylococcus aureus gray infection; assay type: in vivo, male CF-1 (Carworth Farms) mice; conditions: two doses, survival 48 hours after infection, read-out: PD50
Protocol: as §3, §4

[18] = system: Salmonella schottmuelleri; test: In vitro activity, tube dilution (MIC), Salmonella schottmuelleri; assay type: cell-based; conditions: 3 strains; yeast beef broth pH 7.4, 18 h, 37° C.; read-out: MIC (Minimal Inhibitory Concentration), range
Protocol: as §2

[19] = in 66% dimethylformamide; data from U.S. Pat. No. 3,767,793; cited from earlier work
[20] = system: Streptococcus pyogenes C; test: Protective activity in mice, Streptococcus pyogenes C infection; assay type: in vivo, male CF-1 (Carworth Farms) mice; conditions: two doses, survival 48 hours after infection, read-out: PD50
Protocol: as §3, §4

[21] = system: gram-positive bacteria; test: Antibacterial activity, general statements; assay type: cell-based
Protocol: as §2

[22] = U.S. Pat. No. 3,767,793, cited from earlier work
[23] = system: α-amylase; test: Stability to α-amylase; assay type: in vitro ADME; conditions: α-amylase 1 mg./ml. pH 4, 37° C., 24 hours; disc assay E. coli and S. aureus
Protocol: as §1

## CCCCCCCCCCCCCCCCCC(=O)OC1C(OC2C(CC=O)CC(C)C(=O)C=CC3(C)OC3C(C)C(CC)OC(=O)CC(O)C2C)OC(C)CC1N(C)C (centres unmarked) [Antibiotic 67-694 2'-stearate, Antibiotic 67-694 2'-Stearate]
[1]
  potency (bioassay): 585 µg/mg

## CCC1OC(=O)CC(O)C(C)C(OC2OC(C)CC(N(C)C)C2O)C(CC=O)CC(C)C(=O)C=CC2(C)OC2C1C (centres unmarked) [Antibiotic 67-694]
[2]
  pKa: 8.7
[3]
  Stability to enzymes: loss in activity: no substantial loss in activity
[4]
  MIC: 0.03 to 0.08 µg/mL (≈ 0.0516 to 0.138 µM)
[5]
  Stability to enzymes: loss in activity: no substantial loss in activity
[6]
  MIC: 0.3 µg/mL (≈ 0.516 µM)
[7]
  MIC: 0.03 µg/mL (≈ 0.0516 µM)
[1]; purified by silicic acid column, Example 4
  potency (assaying units per mg): about 1,000 units per mg
[8]
  MIC: 0.3 to 3 µg/mL (≈ 0.516 to 5.16 µM)
[9]
  MIC: 0.03 to 3 µg/mL (≈ 0.0516 to 5.16 µM)
[10]
  MIC: 0.75 to 3 µg/mL (≈ 1.29 to 5.16 µM)
[11]; Acetone
  Solubility: Very soluble
[11]; Benzene
  Solubility: Very soluble
[11]; Chloroform
  Solubility: Very soluble
[11]; Ether
  Solubility: Sparingly soluble
[11]; Methanol
  Solubility: Very soluble
[11]; Water
  Solubility: Slightly soluble
[12]
  Stability to enzymes: loss in activity: no substantial loss in activity
[13]; ip, Intraperitoneal
  LD50: 350 mg/kg
[13]; sc, Subcutaneous
  LD50: 625 mg/kg
[13]; Intravenous
  LD50: 155 mg/kg
[14]
  MIC: 0.75 to 7.5 µg/mL (≈ 1.29 to 12.9 µM)
[15]
  MIC: 0.75 to 3 µg/mL (≈ 1.29 to 5.16 µM)
[16]
  MIC: 3 µg/mL (≈ 5.16 µM)
[17]; oral
  ED50: 200 mg/kg
[17]; sc, Subcutaneous
  ED50: 50 mg/kg
[18]
  MIC: 0.3 to 3 µg/mL (≈ 0.516 to 5.16 µM)
[19]
  pKa: 8.4
[20]; Oral
  ED50: 200 mg/kg
[20]; sc, Subcutaneous
  ED50: 50 mg/kg
[21]
  antibacterial activity / spectrum (in words): broad antibacterial spectrum in vitro with a greater effect upon gram-positive bacteria
[22]; benzene, chloroform, ethyl acetate, dimethylformamide, ethanol or an aqueous acid solution
  Solubilities: Soluble
[22]; petroleum ether, n-hexane or a neutral water
  Solubilities: Insoluble
[23]
  Stability to enzymes: loss in activity: no substantial loss in activity

## CCC(=O)OC1C(OC2C(CC=O)CC(C)C(=O)C=CC3(C)OC3C(C)C(CC)OC(=O)CC(O)C2C)OC(C)CC1N(C)C (centres unmarked) [Antibiotic 67-694 2'-Propionate Phosphate Salt]
[1]; Phosphate Salt
  potency (bioassay): 915 µg/mg
